In US8785445B2 (Array BioPharma Inc., priority 2008, dated 2014):

molecular target: T1, human DP2 (Homo sapiens, UniProt Q9Y5Y4); test: DP-2 binding inhibition assay (3H-PGD2, membranes of DP2-expressing K562 cells); conditions: 4% HSA, read-out: EC50 (nM) 4% HSA
T1 construct: expressed in transfected cells; membranes prepared
T1 sequence (Q9Y5Y4 1-395): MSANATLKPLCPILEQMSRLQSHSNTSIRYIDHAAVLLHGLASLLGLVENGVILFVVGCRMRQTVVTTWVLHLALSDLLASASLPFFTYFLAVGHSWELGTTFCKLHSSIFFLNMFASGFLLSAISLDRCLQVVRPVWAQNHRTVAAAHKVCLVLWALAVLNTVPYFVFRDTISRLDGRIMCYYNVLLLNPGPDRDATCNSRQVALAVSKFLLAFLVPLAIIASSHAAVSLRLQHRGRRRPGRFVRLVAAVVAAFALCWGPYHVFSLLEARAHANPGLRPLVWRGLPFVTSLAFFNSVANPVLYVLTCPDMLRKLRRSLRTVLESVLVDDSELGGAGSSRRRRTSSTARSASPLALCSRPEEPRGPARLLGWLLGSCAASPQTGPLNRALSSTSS
In short: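 Displacement of 3H-PGD2 was measured by filtration and scintillation counting after 60 min at room temperature, using membranes of DP2-transfected K562 cells in 0.1% BSA, 1% HSA or 4% HSA.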

Compound	EC50 [nM]
O=C(Nc1ccnc(-c2ccc(Cl)cc2)c1)c1ccc(Oc2cc3c(cc2Cl)C(C(=O)O)CCO3)cc1 (stereo not shown) [Example 128, 6-Chloro-7-(4-(2-(4-chlorophenyl)pyridin-4-ylcarbamoyl)phenoxy)chroman-4-carboxylic acid]	596
O=C(Nc1ccnc(-c2cccc(Cl)c2)c1)c1ccc(Oc2cc3c(cc2Cl)C(C(=O)O)CCO3)cc1 (stereo not shown) [Example 129, 6-Chloro-7-(4-(2-(3-chlorophenyl)pyridin-4-ylcarbamoyl)phenoxy)chroman-4-carboxylic acid]	437
O=C(Nc1nccc(-c2ccc(C(F)(F)F)cc2)n1)c1ccc(Oc2cc3c(cc2Cl)C(C(=O)O)CCO3)cc1 (stereo not shown) [Example 130, 6-Chloro-7-(4-(4-(4-(trifluoromethyl)phenyl)pyrimidin-2-ylcarbamoyl)phenoxy)chroman-4-carboxylic acid]	139
O=C(Nc1nccc(-c2cccc(C(F)(F)F)c2)n1)c1ccc(Oc2cc3c(cc2Cl)C(C(=O)O)CCO3)cc1 (stereo not shown) [Example 131, 6-Chloro-7-(4-(4-(3-(trifluoromethyl)phenyl)pyrimidin-2-ylcarbamoyl)phenoxy)chroman-4-carboxylic acid]	128
O=C(Nc1nccc(-c2ccc(Cl)cc2)n1)c1ccc(Oc2cc3c(cc2Cl)C(C(=O)O)CCO3)cc1 (stereo not shown) [Example 132, 6-Chloro-7-(4-(4-(4-chlorophenyl)pyrimidin-2-ylcarbamoyl)phenoxy)chroman-4-carboxylic acid]	128
O=C(Nc1nccc(-c2cccc(Cl)c2)n1)c1ccc(Oc2cc3c(cc2Cl)C(C(=O)O)CCO3)cc1 (stereo not shown) [Example 133, 6-Chloro-7-(4-(4-(3-chlorophenyl)pyrimidin-2-ylcarbamoyl)phenoxy)chroman-4-carboxylic acid]	261
O=C(Nc1ncc(-c2cccc(Cl)c2)cn1)c1ccc(Oc2cc3c(cc2Cl)C(C(=O)O)CCO3)cc1 (stereo not shown) [Example 134, 6-Chloro-7-(4-(5-(3-chlorophenyl)pyrimidin-2-ylcarbamoyl)phenoxy)chroman-4-carboxylic acid]	426
O=C(Nc1cnc(-c2cccc(Cl)c2)nc1)c1ccc(Oc2cc3c(cc2Cl)C(C(=O)O)CCO3)cc1 (stereo not shown) [Example 135, 6-Chloro-7-(4-(2-(3-chlorophenyl)pyrimidin-5-ylcarbamoyl)phenoxy)chroman-4-carboxylic acid]	313
O=C(Nc1cncc(-c2ccc(Cl)cc2)n1)c1ccc(Oc2c(Cl)cc3c(c2Cl)OCCC3C(=O)O)cc1 (stereo not shown) [Example 136, 6,8-Dichloro-7-(4-(6-(4-chlorophenyl)pyrazin-2-ylcarbamoyl)phenoxy)chroman-4-carboxylic acid]	442
O=C(Nc1ccnc(-c2ccc(Cl)cc2)n1)c1ccc(Oc2c(Cl)cc3c(c2Cl)OCCC3C(=O)O)cc1 (stereo not shown) [Example 137, 6,8-Dichloro-7-(4-(2-(4-chlorophenyl)pyrimidin-4-ylcarbamoyl)phenoxy)chroman-4-carboxylic acid]	80.9
O=C(NCCc1ncc(Cl)cc1Cl)c1ccc(Oc2cc3c(cc2Cl)C(C(=O)O)CCO3)cc1 (stereo not shown) [Example 138, Sodium 6-chloro-7-(4-(2-(3,5-dichloropyridin-2-yl)ethylcarbamoyl)phenoxy)chroman-4-carboxylate]	687
CN(C)c1nc(C(F)(F)F)ccc1CCNC(=O)c1ccc(Oc2cc3c(cc2Cl)C(C(=O)O)CCO3)cc1 (stereo not shown) [Example 139, Sodium 6-chloro-7-(4-(2-(2-(dimethylamino)-6-(trifluoromethyl)pyridin-3-yl)ethylcarbamoyl)phenoxy)chroman-4-carboxylate]	40
O=C(Nc1cccc(-c2ccc(Cl)cc2)n1)c1ccc(Oc2c(Cl)cc3c(c2Cl)OCCC3C(=O)O)cc1 (stereo not shown) [Example 143, Sodium 6,8-dichloro-7-(4-(6-(4-chlorophenyl)pyridin-2-ylcarbamoyl)phenoxy)-chroman-4-carboxylate]	83.4
O=C(Nc1ccc2cc(Cl)ccc2n1)c1ccc(Oc2c(Cl)cc3c(c2Cl)OCCC3C(=O)O)cc1 (stereo not shown) [Example 144, Sodium 6,8-dichloro-7-(4-(6-chloroquinolin-2-ylcarbamoyl)phenoxy)chroman-4-carboxylate]	299
O=C(Nc1ccc(-c2cccc(Cl)c2)nc1)c1ccc(Oc2c(Cl)cc3c(c2Cl)OCCC3C(=O)O)cc1 (stereo not shown) [Example 145, Sodium 6,8-dichloro-7-(4-(6-(3-chlorophenyl)pyridin-3-ylcarbamoyl)phenoxy)-chroman-4-carboxylate]	160
N#Cc1cc2c(cc1Oc1ccc(C(=O)Nc3nnc(-c4ccccc4)s3)cc1)OCCC2C(=O)O (stereo not shown) [Example 146, 6-Cyano-7-(4-(5-phenyl-1,3,4-thiadiazol-2-ylcarbamoyl)phenoxy)chroman-4-carboxylic acid]	728
N#Cc1cc2c(cc1Oc1ccc(C(=O)Nc3nnc(-c4ccc(Cl)cc4)s3)cc1)OCCC2C(=O)O (stereo not shown) [Example 147, 7-(4-(5-(4-chlorophenyl)-1,3,4-thiadiazol-2-ylcarbamoyl)phenoxy)-6-cyanochroman-4-carboxylic acid]	3440
O=C(Nc1nnc(-c2ccccc2)s1)c1ccc(Oc2cc3c(cc2Cl)C(C(=O)O)CCO3)cc1 (stereo not shown) [Example 148, 6-chloro-7-(4-(5-phenyl-1,3,4-thiadiazol-2-ylcarbamoyl)phenoxy)chroman-4-carboxylic acid]	5460
O=C(Nc1nnc(-c2ccc(Cl)cc2)s1)c1ccc(Oc2cc3c(cc2Cl)C(C(=O)O)CCO3)cc1 (stereo not shown) [Example 149, 6-chloro-7-(4-(5-(4-chlorophenyl)-1,3,4-thiadiazol-2-ylcarbamoyl)phenoxy)chroman-4-carboxylic acid]	1660
CC(C)(C)c1csc(NC(=O)c2ccc(Oc3cc4c(cc3Cl)C(C(=O)O)CCO4)cc2)n1 (stereo not shown) [Example 150, 7-(4-(4-tert-butylthiazol-2-ylcarbamoyl)phenoxy)-6-chlorochroman-4-carboxylic acid]	32.7
Cc1nc(NC(=O)c2ccc(Oc3cc4c(cc3Cl)C(C(=O)O)CCO4)cc2)sc1C(C)(C)C (stereo not shown) [Example 151, 7-(4-(5-tert-butyl-4-methylthiazol-2-ylcarbamoyl)phenoxy)-6-chlorochroman-4-carboxylic acid]	473
O=C(Nc1nc(-c2ccc(Cl)cc2)cs1)c1ccc(Oc2cc3c(cc2Cl)C(C(=O)O)CCO3)cc1 (stereo not shown) [Example 152, 6-chloro-7-(4-(4-(4-chlorophenyl)thiazol-2-ylcarbamoyl)phenoxy)chroman-4-carboxylic acid]	45.3
O=C(Nc1nc(-c2ccc(F)cc2)cs1)c1ccc(Oc2cc3c(cc2Cl)C(C(=O)O)CCO3)cc1 (stereo not shown) [Example 153, 6-chloro-7-(4-(4-(4-fluorophenyl)thiazol-2-ylcarbamoyl)phenoxy)chroman-4-carboxylic acid]	67.5
O=C(Nc1nc(-c2ccc(F)c(F)c2)cs1)c1ccc(Oc2cc3c(cc2Cl)C(C(=O)O)CCO3)cc1 (stereo not shown) [Example 154, 6-chloro-7-(4-(4-(3,4-difluorophenyl)thiazol-2-ylcarbamoyl)phenoxy)chroman-4-carboxylic acid]	59

same assay, conditions: EC50 (nM) 4% HSA, 4% HSA

Compound	EC50 [nM]
COc1ccc(CCNC(=O)c2ccc(Oc3cc4c(cc3Cl)C(C(=O)O)CCO4)cc2)c(OC)n1 (stereo not shown) [Example 140, Sodium 6-chloro-7-(4-(2-(2,6-dimethoxypyridin-3-yl)ethylcarbamoyl)phenoxy)chroman-4-carboxylate]	107
